Assay results from patent US12516049B2, “Sulfonylurea ring substituted monocyclic β-lactam antibiotics” (priority 2019, dated 2026).
Converted amounts (≈) assume the structure as drawn.

Assays:
Format in all cases: cell-based
[1] = system: Klebsiella pneumonia ATCC BAA-1705 (KPC-2); assay: MIC, micro-liquid dilution (CLSI); details: Klebsiella pneumoniae, ATCCBAA1705; K. pneumonia ATCC BAA-1705, Class A (KPC-2); 20-24 h, 37° C.
Experimental: (§1) Three strains of Klebsiella pneumonia, ATCC BAA-205 (TEM-1/SHV-1/SHV-12), ATCC BAA-1705 (KPC-2), ATCC BAA-2470 (NDM-1), Enterobacter cloacae ATCC BAA-1143 (AmpC), two strains of Escherichia coli ATCC BAA-2523 (OXA-48), ATCC 25922 were used to determine the minimum inhibitory concentration (MIC) of each of the compounds by micro-liquid dilution method according to the Institute of Clinical and Laboratory Standard (CLSI) requirements. […]. The plate was placed upside down at 37° C. and the MIC value was read after 20-24 h of incubation, and the lowest drug concentration that inhibited the growth of bacteria was set as MIC. Colony-Forming Units (CFU) refer to the total number of bacterial colonies per unit volume.

[2] = system: Klebsiella pneumonia ATCC BAA-205 (TEM-1/SHV-1/SHV-12); assay: MIC, micro-liquid dilution (CLSI); details: Klebsiella pneumoniae, ATCCBAA205; K. pneumonia ATCC BAA-205, Class A (TEM-1/SHV-1/SHV-12); 20-24 h, 37° C.
Experimental: as §1

[3] = system: Klebsiella pneumonia ATCC BAA-2470 (NDM-1); assay: MIC, micro-liquid dilution (CLSI); details: Klebsiella pneumoniae, ATCCBAA2470; K. pneumonia ATCC BAA-2470, Class B (NDM-1); 20-24 h, 37° C.
Experimental: as §1

[4] = system: Escherichia coli ATCC 25922; assay: MIC, micro-liquid dilution (CLSI); details: ATCC25922, E. coli ATCC 25922, 20-24 h, 37° C.
Experimental: as §1

[5] = system: Enterobacter cloacae ATCC BAA-1143 (AmpC); assay: MIC, micro-liquid dilution (CLSI); details: ATCCBAA1143, E. cloacae ATCC BAA-1143, Class C (AmpC), 20-24 h, 37° C.
Experimental: as §1

[6] = system: Escherichia coli ATCC BAA-2523 (OXA-48); assay: MIC, micro-liquid dilution (CLSI); details: ATCCBAA2523, E. coli ATCC BAA-2523, Class D (OXA-48), 20-24 h, 37° C., read-out: MIC
Experimental: as §1

E.coli 115101 = assay: MIC, two-fold agar dilution, clinical isolate; details: Escherichia coli; E.coli 115101; single drug; average of three tests; read-out: MIC
Experimental: (§2) The minimum inhibitory concentration (MIC) of the compound and combination with β-lactamase (MBLs) inhibitors against clinically isolated carbapenem-resistant enterobacteriaceae was determined by the two-fold agar dilution method to determine the activity of the compound to be tested against strains producing MBLs. […] The mother liquor was diluted to the concentration to be tested by double dilution method, an inoculum liquid was prepared by direct bacterial suspension method, 1 mL of the prepared bacteria solution was withdrawn and putted into the inoculation tube, and a positioning needle and an inoculation needle were installed. A bacterial multi-point inoculator was started for inoculation. After the bacterial solution was absorbed by the agar, the plate was placed upside down in an incubator at 37° C. for 16-20 hours, and the results were observed. The average of three tests was taken.

K.p HX30 = assay: MIC, two-fold agar dilution, clinical isolate; details: K.p HX30; single drug; average of three tests; read-out: MIC
Experimental: as §2

E.coli 115105 = assay: MIC, two-fold agar dilution, clinical isolate; details: Escherichia coli, single drug, average of three tests
Experimental: as §2

[7] = system: clinically isolated carbapenem-resistant enterobacteriaceae; details: single drug; panel of 26 strains of Table 2
Experimental: as §2

K.p HX37 = assay: MIC, two-fold agar dilution, clinical isolate; details: K.p HX37; single drug; average of three tests; read-out: MIC
Experimental: (§3) The minimum inhibitory concentration (MIC) of the compound and combination with β-lactamase (MBLs) inhibitors against clinically isolated carbapenem-resistant enterobacteriaceae was determined by the two-fold agar dilution method to determine the activity of the compound to be tested against strains producing MBLs. Antibiotics and enzyme inhibitors were weighed separately and dissolved in sterile ultrapure water or dimethyl sulfoxide to prepare mother liquor, MHA medium was prepared, pH was adjusted to 7.2-7.4, and it was sterilized at 121° C. for 15 minutes and placed in a 55° C. water bath for heat preservation. The mother liquor was diluted to the concentration to be tested by double dilution method, an inoculum liquid was prepared by direct bacterial suspension method, 1 mL of the prepared bacteria solution was withdrawn and putted into the inoculation tube, and a positioning needle and an inoculation needle were installed. A bacterial multi-point inoculator was started for inoculation. After the bacterial solution was absorbed by the agar, the plate was placed upside down in an incubator at 37° C. for 16-20 hours, and the results were observed. The average of three tests was taken.

K.p CRE16 = assay: MIC, two-fold agar dilution, clinical isolate; details: single drug, average of three tests
Experimental: as §3

K.p 6777 = assay: MIC, two-fold agar dilution, clinical isolate; details: K.p 6777; single drug; average of three tests; read-out: MIC
Experimental: as §3

[8] = system: Morganella morganii C1274; assay: MIC, two-fold agar dilution, clinical isolate; details: Morganella morganii C1274; single drug; average of three tests; read-out: MIC
Experimental: as §3

E.coli 020031 = assay: MIC, two-fold agar dilution, clinical isolate; details: Escherichia coli, single drug, average of three tests
Experimental: as §3

E.coli 115103 = assay: MIC, two-fold agar dilution, clinical isolate; details: Escherichia coli; E.coli 115103; single drug; average of three tests; read-out: MIC
Experimental: as §3

K.p C904 = assay: MIC, two-fold agar dilution, clinical isolate; details: K.p C904; single drug; average of three tests; read-out: MIC
Experimental: as §3

E.coli CRE21 = assay: MIC, two-fold agar dilution, clinical isolate; details: Escherichia coli; E.coli CRE21; single drug; average of three tests; read-out: MIC
Experimental: as §3

E.coli 020028 = assay: MIC, two-fold agar dilution, clinical isolate; details: Escherichia coli, single drug, average of three tests
Experimental: as §3

E.coli CRE18 = assay: MIC, two-fold agar dilution, clinical isolate; details: Escherichia coli; E.coli CRE18; single drug; average of three tests; read-out: MIC
Experimental: as §3

K.p BAA-2470 = assay: MIC, two-fold agar dilution, clinical isolate; details: K.p BAA-2470; single drug; average of three tests; read-out: MIC
Experimental: as §3

K.p CRE12 = assay: MIC, two-fold agar dilution, clinical isolate; details: single drug, average of three tests
Experimental: as §3

E.coli 020033 = assay: MIC, two-fold agar dilution, clinical isolate; details: Escherichia coli, single drug, average of three tests
Experimental: as §3

K.p 11544 = assay: MIC, two-fold agar dilution, clinical isolate; details: K.p 11544; single drug; average of three tests; read-out: MIC
Experimental: as §3

K.p 13249 = assay: MIC, two-fold agar dilution, clinical isolate; details: K.p 13249; single drug; average of three tests; read-out: MIC
Experimental: as §3

E.coli BAA-2452 = assay: MIC, two-fold agar dilution, clinical isolate; details: Escherichia coli, BAA2452; E.coli BAA-2452; single drug; average of three tests; read-out: MIC
Experimental: as §3

E.coli CRE28 = assay: MIC, two-fold agar dilution, clinical isolate; details: Escherichia coli; E.coli CRE28; single drug; average of three tests; read-out: MIC
Experimental: as §3

K.p 090339 = assay: MIC, two-fold agar dilution, clinical isolate; details: K.p 090339; single drug; average of three tests; read-out: MIC
Experimental: as §3

K.p HX77 = assay: MIC, two-fold agar dilution, clinical isolate; details: single drug, average of three tests
Experimental: as §3

E.coli CRE23 = assay: MIC, two-fold agar dilution, clinical isolate; details: Escherichia coli; E.coli CRE23; single drug; average of three tests; read-out: MIC
Experimental: as §3

K.p CRE11 = assay: MIC, two-fold agar dilution, clinical isolate; details: K.p CRE11; single drug; average of three tests; read-out: MIC
Experimental: as §3

K.p 115004 = assay: MIC, two-fold agar dilution, clinical isolate; details: K.p 115004; single drug; average of three tests; read-out: MIC
Experimental: as §3

E.coli C1569 = assay: MIC, two-fold agar dilution, clinical isolate; details: Escherichia coli, single drug, average of three tests
Experimental: as §3

MIC [1] [µg/mL] | MIC [2] [µg/mL] | MIC [3] [µg/mL] | MIC [4] [µg/mL] | MIC [5] [µg/mL] | MIC [6] [µg/mL] | Compound | MIC50 [7] [µg/mL] | MIC (K.p HX37) [µg/mL] | MIC (K.p CRE16) [µg/mL] | MIC (K.p 6777) [µg/mL] | MIC [8] [µg/mL] | MIC (E.coli 020031) [µg/mL] | MIC (E.coli 115103) [µg/mL] | MIC (K.p C904) [µg/mL] | MIC (E.coli CRE21) [µg/mL] | MIC (E.coli 020028) [µg/mL] | MIC (E.coli CRE18) [µg/mL] | MIC (K.p BAA-2470) [µg/mL] | MIC (K.p CRE12) [µg/mL] | MIC (E.coli 020033) [µg/mL] | further results
1 (≈ 1.6 µM) | 1 (≈ 1.6 µM) | 0.5 (≈ 0.8 µM) | 0.5 (≈ 0.8 µM) | 1 (≈ 1.6 µM) | 0.25 (≈ 0.4 µM) | N=C(N)NC[C@@H]1CN(C[C@@H]2[C@H](NC(=O)/C(=N\OC3(C(=O)O)CC3)c3csc(N)n3)C(=O)N2S(=O)(=O)O)S(=O)(=O)N1 [Compound 5] |  |  |  |  |  |  |  |  |  |  |  |  |  |  | 
8 (≈ 12.8 µM) | 2 (≈ 3.2 µM) | 1 (≈ 1.6 µM) | 4 (≈ 6.4 µM) | 1 (≈ 1.6 µM) | 0.25 (≈ 0.4 µM) | CC(=O)NC[C@@H]1CN(C[C@@H]2[C@H](NC(=O)/C(=N\OC3(C(=O)O)CC3)c3csc(N)n3)C(=O)N2S(=O)(=O)O)S(=O)(=O)N1 [Compound 6] |  |  |  |  |  |  |  |  |  |  |  |  |  |  | 
 |  |  |  |  |  | Nc1nc(/C(=N/OC2(C(=O)O)CC2)C(=O)N[C@@H]2C(=O)N(S(=O)(=O)O)[C@@H]2CN2CCOC2=O)cs1 [LYS 228] | 0.5 | 0.5 | 0.06 | 1 | 0.25 | 4 | 8 | 0.125 | 4 | 0.125 | 4 | 0.25 | 0.125 | 8 | MIC (E.coli 115101): 4 µg/mL; MIC (K.p HX30): 2 µg/mL; MIC (E.coli 115105): 4 µg/mL; MIC90 [7]: 4 µg/mL; MIC (K.p 11544): 0.125 µg/mL; MIC (K.p 13249): 0.125 µg/mL; MIC (E.coli BAA-2452): 0.5 µg/mL; MIC (E.coli CRE28): 4 µg/mL; MIC (K.p 090339): 0.25 µg/mL; MIC (K.p HX77): 0.03 µg/mL; MIC (E.coli CRE23): 2 µg/mL; MIC (K.p CRE11): 0.125 µg/mL; MIC (K.p 115004): 0.25 µg/mL; MIC (E.coli C1569): 4 µg/mL
 |  |  |  |  |  | C[C@@H](O)[C@H]1C(=O)N2C(C(=O)O)=C(S[C@@H]3CN[C@H](C(=O)N(C)C)C3)[C@H](C)[C@H]12 [Meropenem] | 16 | 32 | 8 | 8 | 2 | 32 | 16 | 16 | 64 | 16 | 32 | 32 | 16 | 32 | MIC (K.p 11544): 16 µg/mL; MIC (K.p 13249): 32 µg/mL; MIC (E.coli BAA-2452): 16 µg/mL; MIC (E.coli CRE28): 32 µg/mL; MIC (K.p 090339): 16 µg/mL; MIC (K.p HX77): 16 µg/mL; MIC (E.coli CRE23): 32 µg/mL; MIC (K.p CRE11): 32 µg/mL; MIC (K.p 115004): 16 µg/mL; MIC (E.coli C1569): 16 µg/mL
